For the assay, the system named is HepG2. The assay is described as follows: Hepatoprotective activity in human HepG2 cells assessed as inhibition of APAP-induced cell damage at 10 uM by MTT assay relative to control. It counts as functional. On the technique in general: Tetrazolium dyes change colour on reduction, which living cells bring about.
Turning to `C[C@@]12C[C@H](C3=CC(=O)O[C@@H]3O)OC(=O)C1=CC[C@]1(C)[C@H]2C[C@H]2COC(=O)[C@]21O`, the inhibition at 10 µM came out at 4.9%.
To `COC(=O)[C@H]1O[C@H]2C[C@]1(C)C(CCCO[C@@H]1O[C@H](CO)[C@@H](O)[C@H](O)[C@H]1O)[C@]1(C)C[C@@H](c3ccoc3)OC(=O)[C@H]21` (stereo partly specified) belongs -24.9%.
For `C[C@@H](O)/C=C/C1[C@]2(C)CO[C@@]1(C)C[C@@H](O)C2` (stereo partly specified), the inhibition at 10 µM was determined as 19.2%.
For the compound `C[C@@]12C[C@@H](c3ccoc3)OC(=O)C1=CC[C@]1(C)[C@H]2C[C@H]2COC(=O)[C@]21OC1O[C@H](CO)[C@@H](O)[C@H](O)[C@H]1O` (stereo partly specified), the inhibition at 10 µM amounted to 3.8%.
As for `C[C@@]12C[C@@H](c3ccoc3)OC(=O)C1=CC[C@]1(C)[C@H]2C[C@H]2COC(=O)[C@]21O`, the inhibition at 10 µM is 6.4%.
Turning to `C[C@@]12C[C@H](c3ccoc3)OC(=O)C1=CC[C@]1(C)[C@H]2C[C@H]2COC(=O)[C@]21O`, the inhibition at 10 µM came to 6.6%.
For `COc1cc([C@@H]2OC[C@@H]3C(=O)OC[C@@H]32)cc(OC)c1O`, the inhibition at 10 µM was 17%.
As to `COC(=O)c1cc(OC)c2c(c1-c1c(CO)cc(OC)c3c1OCO3)OCO2` [BICYCLOL], the inhibition at 10 µM was 15.7%.
Regarding `COc1cc(C[C@H]2CO[C@H](c3ccc(O)c(OC)c3)[C@H]2CO)ccc1O` [LARICIRESINOL], the inhibition at 10 µM is -4.3%.
Take `O=C(/C=C/c1ccc(O)cc1)NCCc1ccc(O)cc1` [N-P-COUMAROYL TYRAMINE]: the inhibition at 10 µM amounted to 39%.
With `COc1cc(/C=C/C(=O)NCCc2ccc(O)cc2)ccc1O` [N-TRANS-FERULOYL TYRAMINE], the inhibition at 10 µM was determined as 3.5%.

As a reminder, the inhibition is the relative decrease from the control value, in per cent.

The record behind these values is ChEMBL document CHEMBL4392875, “Rearranged Clerodane Diterpenoids from the Stems of Tinospora baenzigeri” (2019).
